Where “and” joins values, the source holds several entries; their conditions need not be identical. Identical values can stand only once. Inconclusive results and toxic doses are left out. The calls were made as follows: active = survival T/C of 150% or more; inactive = T/C below 125% in these data. Starred links: 1 amine or outer side, 2 acyl side, 3 side chain; linkers in the order of their positions; H or OH if unused. Positions of bridges follow the written chain, without caps; N, C: chain ends. Non-standard residues stand in square brackets, D forms with d. Residues, ends and D or L forms follow the SMILES beside them. Chains are numbered I, II in the order given. Actinocin(9to1) = Cc1c2oc3c(C)ccc(C(=O)[*:1])c3nc-2c(C(=O)[*:2])c(N)c1=O; aThr = C[C@H](O)[C@H](N)C(=O)O; NMeV = CN[C@H](C(=O)O)C(C)C; Sar = CNCC(=O)O
Tested on: P335 leukemia ip, BDF1 mice, survival T/C %
Experiment: NCI In Vivo Anticancer Drug Screen. Data for tumor model P335 Leukemia (intraperitoneal) in B6D2F1 (BDF1) mice
Conditions: endpoint: mean survival time, higher = longer survival
Protocol: The antitumor activity of compounds was measured in mice bearing transplantable tumors. Survival or tumor size were measured and the results are expressed as the measurement made in the treated group (T) divided by the measurement made in the vehicle treated control group (C). The tumor model used in this assay is P335 Leukemia (intraperitoneal) in B6D2F1 (BDF1) mice

[1] = dose: 0.25 mg/kg/injection, schedule: Q01DX Z (ip), vehicle: carboxymethylcellulose (CMC)
[2] = dose: 0.5 mg/kg/injection, schedule: Q01DX Z (ip), vehicle: carboxymethylcellulose (CMC)
[3] = dose: 0.31 mg/kg/injection, schedule: Q01DX Z (ip), vehicle: carboxymethylcellulose (CMC)
[4] = dose: 1.25 mg/kg/injection, schedule: Q01DX Z (ip), vehicle: carboxymethylcellulose (CMC)
[5] = dose: 5.0 mg/kg/injection, schedule: Q01DX Z (ip), vehicle: carboxymethylcellulose (CMC)
[6] = dose: 10.0 mg/kg/injection, schedule: Q01DX Z (ip), vehicle: carboxymethylcellulose (CMC)
[7] = dose: 0.63 mg/kg/injection, schedule: Q01DX Z (ip), vehicle: carboxymethylcellulose (CMC)

Measured: T/C

NC(=O)c1cn(C2OC(CO)C(O)C2O)c2ncnc(N)c12 (stereo unspecified)
inactive: [1] 101 % of control | [2] 86 % of control | dose: 16.0 micrograms/kg/injection, schedule: Q01DX Z (ip), vehicle: carboxymethylcellulose (CMC) 110 % of control | dose: 31.0 micrograms/kg/injection, schedule: Q01DX Z (ip), vehicle: carboxymethylcellulose (CMC) 104 % of control | dose: 63.0 micrograms/kg/injection, schedule: Q01DX Z (ip), vehicle: carboxymethylcellulose (CMC) 105 % of control

Cc1c2oc3c(C)ccc(C(=O)N[C@@H]4C(=O)N[C@H](C(C)C)C(=O)N5CCC[C@H]5C(=O)N(C)CC(=O)N(C)[C@@H](C(C)C)C(=O)O[C@H]4C)c3nc-2c(C(=O)N[C@@H]2C(=O)N[C@H](C(C)C)C(=O)N3CCC[C@H]3C(=O)N(C)CC(=O)N(C)[C@@H](C(C)C)C(=O)O[C@H]2C)c(N)c1=O (I: [aThr][dV]P[Sar][NMeV] / II: [aThr][dV]P[Sar][NMeV]; ester I:1-I:C, II:1-II:C; linker I:N-II:N via Actinocin(9to1))
inactive: dose: 0.8 micrograms/kg/injection, schedule: Q01DX Z (ip), vehicle: saline 106 % of control | dose: 1.6 micrograms/kg/injection, schedule: Q01DX Z (ip), vehicle: saline 106 % of control | dose: 2.5 micrograms/kg/injection, schedule: Q01DX Z (ip), vehicle: saline 96 % of control | dose: 4.9 micrograms/kg/injection, schedule: Q01DX Z (ip), vehicle: saline 102 % of control | dose: 6.4 micrograms/kg/injection, schedule: Q01DX Z (ip), vehicle: saline 120 % of control | dose: 9.8 micrograms/kg/injection, schedule: Q01DX Z (ip), vehicle: saline 98 % of control | dose: 19.5 micrograms/kg/injection, schedule: Q01DX Z (ip), vehicle: saline 88 % of control | dose: 38.9 micrograms/kg/injection, schedule: Q01DX Z (ip), vehicle: saline 122 % of control | dose: 51.2 micrograms/kg/injection, schedule: Q01DX Z (ip), vehicle: saline 115 % of control | dose: 102.4 micrograms/kg/injection, schedule: Q01DX Z (ip), vehicle: saline 103 % of control

Nc1nc(=S)c2[nH]cnc2[nH]1
inactive: dose: 0.12 mg/kg/injection, schedule: Q01DX Z (ip), vehicle: carboxymethylcellulose (CMC) 92 % of control | [1] 95 % of control | [2] 95 % of control | dose: 1.0 mg/kg/injection, schedule: Q01DX Z (ip), vehicle: carboxymethylcellulose (CMC) 101 % of control | dose: 2.0 mg/kg/injection, schedule: Q01DX Z (ip), vehicle: carboxymethylcellulose (CMC) 95 % of control

N#[N+]c1cnc([O-])[nH]c1=O
inactive: [3] 96 % of control | dose: 0.62 mg/kg/injection, schedule: Q01DX Z (ip), vehicle: carboxymethylcellulose (CMC) 123 % of control | [4] 103 % of control | [5] 124 % of control | [6] 103 % of control and 104 % of control and 110 % of control

C1CN1c1nc(N2CC2)nc(N2CC2)n1
inactive: dose: 0.9 micrograms/kg/injection, schedule: Q01DX Z (ip), vehicle: saline 87 % of control | dose: 1.9 micrograms/kg/injection, schedule: Q01DX Z (ip), vehicle: saline 90 % of control | dose: 7.8 micrograms/kg/injection, schedule: Q01DX Z (ip), vehicle: saline 90 % of control and 114 % of control

CC1CCOS(=O)O1 (stereo unspecified)
inactive: [6] 91 % of control | dose: 20.0 mg/kg/injection, schedule: Q01DX Z (ip), vehicle: carboxymethylcellulose (CMC) 113 % of control | dose: 40.0 mg/kg/injection, schedule: Q01DX Z (ip), vehicle: carboxymethylcellulose (CMC) 117 % of control | dose: 80.0 mg/kg/injection, schedule: Q01DX Z (ip), vehicle: carboxymethylcellulose (CMC) 107 % of control

CCCCNc1ncnc2c1cnn2C
inactive: dose: 4.0 mg/kg/injection, schedule: Q01DX Z (ip), vehicle: carboxymethylcellulose (CMC) 86 % of control | dose: 8.0 mg/kg/injection, schedule: Q01DX Z (ip), vehicle: carboxymethylcellulose (CMC) 86 % of control | dose: 16.0 mg/kg/injection, schedule: Q01DX Z (ip), vehicle: carboxymethylcellulose (CMC) 96 % of control | dose: 31.25 mg/kg/injection, schedule: Q01DX Z (ip), vehicle: carboxymethylcellulose (CMC) 101 % of control | dose: 62.5 mg/kg/injection, schedule: Q01DX Z (ip), vehicle: carboxymethylcellulose (CMC) 93 % of control

O=C(Nc1ccc(NC2=NCCN2)cc1)c1ccc(C(=O)Nc2ccc(NC3=NCCN3)cc2)cc1
active: dose: 4.0 mg/kg/injection, schedule: Q01DX Z (ip), vehicle: saline 175 % of control | dose: 8.0 mg/kg/injection, schedule: Q01DX Z (ip), vehicle: saline 208 % of control | dose: 16.0 mg/kg/injection, schedule: Q01DX Z (ip), vehicle: saline 170 % of control
inactive: dose: 32.0 mg/kg/injection, schedule: Q01DX Z (ip), vehicle: saline 91 % of control

COC12C(COC(N)=O)C3=C(C(=O)C(C)=C(N)C3=O)N1CC1C2N1C (stereo unspecified)
inactive: [7] 110 % of control
active: [5] 160 % of control and 168 % of control

C[n+]1c2ccccc2nc2c(N)cc(N)cc21
inactive: dose: 1.6 mg/kg/injection, schedule: Q01DX Z (ip), vehicle: carboxymethylcellulose (CMC) 94 % of control | dose: 3.1 mg/kg/injection, schedule: Q01DX Z (ip), vehicle: carboxymethylcellulose (CMC) 86 % of control | dose: 6.2 mg/kg/injection, schedule: Q01DX Z (ip), vehicle: carboxymethylcellulose (CMC) 97 % of control | dose: 6.25 mg/kg/injection, schedule: Q01DX Z (ip), vehicle: carboxymethylcellulose (CMC) 124 % of control | dose: 12.5 mg/kg/injection, schedule: Q01DX Z (ip), vehicle: carboxymethylcellulose (CMC) 100 % of control and 114 % of control | dose: 25.0 mg/kg/injection, schedule: Q01DX Z (ip), vehicle: carboxymethylcellulose (CMC) 120 % of control

O=CN(O)CC(=O)O
inactive: dose: 125.0 mg/kg/injection, schedule: Q01DX Z (ip), vehicle: none 87 % of control | dose: 250.0 mg/kg/injection, schedule: Q01DX Z (ip), vehicle: none 95 % of control | dose: 500.0 mg/kg/injection, schedule: Q01DX Z (ip), vehicle: carboxymethylcellulose (CMC) 109 % of control | dose: 500.0 mg/kg/injection, schedule: Q01DX Z (ip), vehicle: none 89 % of control | dose: 1000.0 mg/kg/injection, schedule: Q01DX Z (ip), vehicle: carboxymethylcellulose (CMC) 93 % of control

Nc1nc(N)c2nc(CNc3ccc(C(=O)NC(CCC(=O)O)C(=O)O)cc3)cnc2n1 (stereo unspecified)
active: dose: 62.0 micrograms/kg/injection, schedule: Q01DX Z (ip), vehicle: alkali diluted with saline 169 % of control
inactive: dose: 16.0 micrograms/kg/injection, schedule: Q01DX Z (ip), vehicle: alkali diluted with saline 96 % of control | dose: 31.0 micrograms/kg/injection, schedule: Q01DX Z (ip), vehicle: alkali diluted with saline 121 % of control | dose: 63.0 micrograms/kg/injection, schedule: Q01DX Z (ip), vehicle: alkali diluted with saline 96 % of control | dose: 250.0 micrograms/kg/injection, schedule: Q01DX Z (ip), vehicle: alkali diluted with saline 98 % of control

CCC(=O)O[C@H]1CC[C@H]2[C@@H]3CCC4=CC(=O)CC[C@]4(C)[C@H]3CC[C@]12C
inactive: dose: 23.43 mg/kg/injection, schedule: Q01DX Z (sc), vehicle: steriod suspending solution 114 % of control | dose: 60.0 mg/kg/injection, schedule: Q01DX Z (sc), vehicle: steriod suspending solution 106 % of control | dose: 93.75 mg/kg/injection, schedule: Q01DX Z (sc), vehicle: steriod suspending solution 114 % of control | dose: 300.0 mg/kg/injection, schedule: Q01DX Z (sc), vehicle: steriod suspending solution 122 % of control | dose: 375.0 mg/kg/injection, schedule: Q01DX Z (sc), vehicle: steriod suspending solution 107 % of control | dose: 1500.0 mg/kg/injection, schedule: Q01DX Z (sc), vehicle: steriod suspending solution 98 % of control and 113 % of control

Nc1nc(=S)c2ncn(C3OC(CO)C(O)C3O)c2[nH]1 (stereo unspecified)
inactive: dose: 0.16 mg/kg/injection, schedule: Q01DX Z (ip), vehicle: carboxymethylcellulose (CMC) 93 % of control | [3] 117 % of control | [7] 90 % of control | [4] 90 % of control

C[C@]12CCC(=O)C[C@H]1CC[C@@H]1[C@@H]2CC[C@@]2(C)[C@H]1CC[C@]2(C)O
inactive: dose: 16.0 mg/kg/injection, schedule: Q01DX Z (sc), vehicle: steriod suspending solution 106 % of control | dose: 31.0 mg/kg/injection, schedule: Q01DX Z (sc), vehicle: steriod suspending solution 93 % of control | dose: 62.5 mg/kg/injection, schedule: Q01DX Z (sc), vehicle: steriod suspending solution 98 % of control and 111 % of control | dose: 125.0 mg/kg/injection, schedule: Q01DX Z (sc), vehicle: steriod suspending solution 111 % of control | dose: 250.0 mg/kg/injection, schedule: Q01DX Z (sc), vehicle: steriod suspending solution 109 % of control | dose: 500.0 mg/kg/injection, schedule: Q01DX Z (sc), vehicle: steriod suspending solution 109 % of control | dose: 1000.0 mg/kg/injection, schedule: Q01DX Z (sc), vehicle: steriod suspending solution 98 % of control
